US10272056B2, “Treatment for mitochondrial diseases” (The George Washington University a Congressionally …, priority 2015, dated 2019)
“Also recorded” adds a separate entry of the source.

Experiments:
[1] = system: ependymal cells of the choroid plexus; test: In vivo mitochondrial mass of choroid plexus (SOD2 immunohistochemistry); parameters: species or system mice; details: NaBt intraperitoneally in E12.5 pregnant dams, brains at E17.5, vs sham
Source text: FIG. 8 is a schematic and image from microscopy showing that NaBt increases in vivo the mitochondrial mass of ependymal cells of the choroid plexus.
NaBt increases in vivo the mitochondrial mass of ependymal cells of the choroid plexus. NaBt's effect on mitochondrial mass of ependymal cells from the choroid plexus was investigated. It is a highly vascularized tissue lining the brain ventricles, which is responsible for producing and secreting the cerebral spinal fluid (CSF) and for supplying growth factors and key ions to the developing and mature brain ([…]). The secretory functions of the ependymal cells are highly dependent of mitochondria to ensure active transports of small ions, water and growth factors from the blood side to the CSF side. Impairment of mitochondrial functions in the choroid plexus has been documented in neurodegenerative diseases, such as Alzheimer's disease. To test the effect of NaBt in the choroid plexus of the murine developing brain, NaBt was injected intraperitoneally in E12.5 pregnant dams before dissected the brains at E17.5. Immunohistochemistry was performed on E17.5 sectioned brains to analyze the mitochondrial mass using an antibody against the mitochondrial marker SOD2.

neuronal cells = test: Mitochondrial membrane potential (TMRM dye, confocal microscopy and flow cytometry); format: cell-based; details: NaBt-treated cells
Method: FIG. 9A-9C are graphs and images from microscopy showing that NaBt enhances mitochondrial bioenergetics. (A) Flow cytometric analysis of Δψm; *p<0.001. (B) ATP levels in live cells using a Mg^2+-based assay; *p<0.001. (C) Electron microscopy of mitochondria in control and NaBt-treated cells; scale bar=200 nm.
NaBt increases mitochondrial membrane potential (Δψm) and ATP levels. The MTR-based data raised the question: could NaBt also enhance mitochondrial bioenergetics? Δψm was assessed by live cell confocal microscopy and flow cytometry using the TMRM dye, which accumulates in the mitochondrial matrix in a Δψm-dependent fashion. A 1.5-fold increase in Δψm in NaBt-treated cells was observed (FIG. 9A). To test whether enhanced Δψm led to increased ATP output, ATP levels were monitored using the live cell Mg^2+-based ATP assay, which is compatible with the TMRM dye, allowing simultaneous recordings. A 1.6-fold increase in ATP levels in NaBt-treated cells was observed (FIG. 9B), in line with the MTR- and TMRM-based findings and the elongated mitochondrial morphology.

[2] = system: E17.5 hippocampal progenitor cells; test: Neuronal differentiation to stage 3 (β-III tubulin immunostaining); format: cell-based; details: NaBt 2 mM at 1DIV, read at 3DIV, no glial feeder layer; untreated 20%
Source text: FIG. 12A-12B are images from microscopy and a graph showing that NaBt concomitantly increases the mitochondrial biomass of E17.5 hippocampal progenitor cells and their neuronal differentiation. (A) High-resolution tile-stacked confocal micrographs of untreated and NaBt-treated E17.5 hippocampal neurons labeled with β-III tubulin (red) and nuclear counterstain DAPI (blue) at 3DIV with insets showing high magnification of the neuritic network. Scale bar represents 20 μm. (B) Graph of percent of β-III tubulin^+ cells having reached the neuronal stage 3. Mean±S.D. (n=250 cells for each condition; *p=0.0001).
Sodium butyrate-mediated increase in mitochondrial mass correlates with accelerated and enhanced neuronal differentiation of hippocampal progenitor cells. Since broad spectrum HDACis induce neuronal differentiation of adult neural progenitors (reviewed by Lee and Lee, 2010), it was assessed whether increase in mitochondrial mass upon NaBt exposure could accelerate the timing of the neuronal developmental stages of cultured E17.5 hippocampal progenitor cells in the absence of astroglial trophic support. To test this hypothesis, the well-defined chronology of the distinct phenotypic differentiation stages of cultured embryonic hippocampal cells was relied on. […] At 3DIV, cells were immunostained for the pan-neuronal marker β-III tubulin to quantify the percent of cells at stage 3.

PC12-ND6 cells [3] = test: mtDNA replication (PicoGreen staining, quantitative PCR); format: cell-based; details: confirmed by quantitative PCR
Source text: FIG. 11A-11D are images from microscopy and graphs showing NaBt promotes mtDNA replication via the NRF-1/Tfam axis. (A) Confocal analysis of mtDNA foci; scale bar=5 (B) Quantitative analysis of mtDNA copy number by PCR; *p<0.001. (C, D) Quantitative immunoblot analysis of NRF-1 and Tfam; *p<0.001.
NaBt enhances mtDNA replication via the PGC1α-mediated NRF-1/Tfam axis. It was investigated whether NaBt enhanced mtDNA replication using the PicoGreen® dye to label mtDNA. PC12-ND6 cells were transfected with the mito-dsRed vector prior to NaBt treatment followed by PicoGreen® staining. […] To corroborate enhanced mitochondrial biogenesis, two key target genes of PGC1α were examined, the NRF-1 transcription factor and its direct target gene Tfam, both essential for mitochondrial biogenesis. […] The findings confirm the NaBt-mediated modulation of mitochondrial biogenesis and mtDNA replication in neuronal cells.

PC12-ND6 cells [4] = test: ROS (superoxide anions) by MitoSOX live cell confocal microscopy; format: cell-based; details: NaBt 5 mM, three days
Method: PC12-ND6 cells were grown in the absence or presence of NaBt (5 mM) for three days before being labeled with the MitoSox™ dye and the nuclear counterstain Hoechst 33342 and analyzed by live cell confocal imaging. Images are representative of three independent experiments. Scale bar represents 10 μm.
On the basis that increased ΔΨm could result in elevated ROS levels due to electron leakage through the mitochondrial electron transfer chain (ETC), the relative levels of superoxide anions (O2^−) were measured by live cell confocal microscopy using the redox-sensitive fluorogenic live-cell permeant dye MitoSOX™, as described in Uittenbogaard et al., 2010b.

SMILES: CCCC(=O)[O-].[Na+] [NaBt, sodium butyrate]
- mitochondrial mass of ependymal cells of the choroid plexus [1]: substantial increase
- increase in Δψm (neuronal cells): 1.5 fold
- percent of neurons advanced to stage 3 [2]: 90%
- mtDNA foci (PC12-ND6 cells [3]): increased number of mtDNA foci
- ROS production (PC12-ND6 cells [4]): does not trigger ROS generation; also recorded: failed to generate ROS production
